US6566140B2, “Inhibition of coagulation in blood and blood products” (University of Vermont and State Agriculture College, priority 1998, dated 2003)
Where “and” joins values, the source holds several entries; their conditions need not be identical. Identical values can stand only once. Entries after “also recorded” stand apart in the source; their conditions may differ.

Legend:
[1] = system: aPTT; assay: aPTT of blood exposed to antithrombotic and antiplatelet agents; type: biochemical, human
Experimental: Blood was harvested between 0900 and 1200 hours. Phlebotomies were performed with 19 gauge butterfly needles and a two syringe technique with which the first three ml of blood were discarded. […] The concentrations of heparin, enoxaparin and abciximab were chosen to simulate those attained in clinical practice and equivalent anti-IIa and anti-Xa concentrations of hirudin and rTAP -were chosen. Final volumes were 1 part anticoagulant to 9 parts blood.

[2] = system: tissue factor initiated clotting in whole blood; assay: tissue factor dependent clotting assay in minimally altered whole blood, contact pathway suppressed with CTI, Hemochron ACT instrument; type: cell-based, human
Source text: This assay uses an anti-coagulation sufficient amount of CTI to inhibit clotting in minimally altered whole blood. The assay is more particularly referred to herein as “tissue factor dependent clotting assay” or similar phrase. The assay is particularly useful for monitoring coagulation in whole or minimally altered whole blood. As an example, the assay is especially useful as a novel bedside tool that permits improved therapuetic assessment including standard antithrombotic and antiplatelet therapies. The assay should also facilitate improved dose selection, titration and monitoring of multicomponent antithrombotic, antiplatelet, and fibrinolytic treatment.
Blood samples were obtained from healthy individuals and the contact pathway of coagulation was inhibited with corn trypsin inhibitor(a specific factor XIIa inhibitor without effect on other coagulation factors.). Clotting was initiated with relipidated tissue factor and detected with a Hemochron ACT instrument. Results were reproducible with samples from 20 healthy volunteers (mean time to clot=118±9 seconds). In other studies, blood was exposed to pharmacologic concentrations of antithrombotic and antiplatelet agents in vitro. […] Additive effects of antiplatelet agents were readily detectable in contrast to the case with aPTT assays. Thus, addition of 3 μg/ml abciximab to 0.1 anti-IIa/Xa U/ml of heparin and to 0.4 anti-Xa U/ml of enoxaparin prolonged the times to clot by 62 and 52 seconds, respectively (p<0.05 for each).
Blood was harvested between 0900 and 1200 hours. Phlebotomies were performed with 19 gauge butterfly needles and a two syringe technique with which the first three ml of blood were discarded. Blood samples were drawn into syringes containing corn trypsin inhibitor (CTI, Enzyme Research Laboratories, South Bend, Ind.) alone in concentrations ranging from 32 to 300 μg/ml or in combination with selected pharmacologic concentrations of heparin (0.1, 0.25 and 0.4 anti-IIa/Xa U/ml), enoxaparin (0.4 and 0.8 anti-Xa U/ml, Rhone-Poulenc Rorer), hirudin ([…], Sigma), recombinant tick anticoagulant peptide (rTAP, 0.4 anti-Xa U/ml, kindly provided by Corvass International), or abciximab (3 μg/ml, Eli Lilly). The concentrations of heparin, enoxaparin and abciximab were chosen to simulate those attained in clinical practice and equivalent anti-IIa and anti-Xa concentrations of hirudin and rTAP -were chosen. Final volumes were 1 part anticoagulant to 9 parts blood.
A 400 μl aliguot of blood was added to a K-resin ACT tube kindly provided by International Technidyne without the glass beads traditionally used to activate the contact pathway. Lipidated tissue factor (1-60 pM, American Diagnostica, Greenwich, Conn.) was added to K-resin tubes before addition of blood.
The K-resin tubes containing tissue factor and blood were placed promptly in a Hemochron ACT instrument. The time to clot was detected by the displacement of a dependent magnet within the rotating tube when fibrin strands formed. The blood was maintained at 37° C. throughout the assay procedure.

[3] = abciximab 3 μg/ml added to 0.1 anti-IIa/Xa U/ml heparin
[4] = abciximab 3 μg/ml added to 0.4 anti-Xa U/ml enoxaparin

enoxaparin
effect on the aPTT ([1]; enoxaparin 0.4 and 0.8 anti-Xa U/ml): increased with increasing concentrations | effect on the aPTT ([1]; enoxaparin 0.4 and 0.8 anti-Xa U/ml, listed as Enoxaparin): prolonged | increase of the aPTT ([1]; enoxaparin 0.4 anti-Xa U/ml): 15 s | effect on the time to clot ([2]; enoxaparin 0.4 and 0.8 anti-Xa U/ml, 200 μg/ml CTI, 20 pM tissue factor): increased with increasing concentrations | effect on the time to clot ([2]; enoxaparin 0.4 and 0.8 anti-Xa U/ml, 200 μg/ml CTI, 20 pM tissue factor, listed as Enoxaparin): prolonged | increase of the time to clot ([2]; enoxaparin 0.4 anti-Xa U/ml): 46 s

heparin
increase of the aPTT ([1]; heparin 0.1 anti-IIa/Xa U/ml): 34 s | effect on the aPTT ([1]; heparin 0.25 and 0.4 anti-IIa/Xa U/ml): prolonged with increasing concentrations | effect on the aPTT ([1]; heparin 0.25 and 0.4 anti-IIa/Xa U/ml, listed as Heparin): prolonged | increase of the time to clot ([2]; heparin 0.1 anti-IIa/Xa U/ml): 41 s | effect on the time to clot ([2]; heparin 0.25 and 0.4 anti-IIa/Xa U/ml, 200 μg/ml CTI, 20 pM tissue factor): prolonged with increasing concentrations | effect on the time to clot ([2]; heparin 0.25 and 0.4 anti-IIa/Xa U/ml, 200 μg/ml CTI, 20 pM tissue factor, listed as Heparin): prolonged

hirudin
prolongation of the aPTT ([1]; hirudin 0.4 anti-IIa U/ml): 3 s | effect on the aPTT ([1]; hirudin 0.4 anti-IIa U/ml (versus 0.8 U/ml)): significantly prolonged only with the higher concentration; also recorded: detected only with 0.8 U/ml; also recorded: not affected | effect on the aPTT ([1]; hirudin 0.4 anti-IIa U/ml (versus 0.8 U/ml), listed as Hirudin): without prolonging the aPTT | prolongation of the aPTT ([1]; hirudin 0.8 U/ml): 16 s | effect on the time to clot ([2]; hirudin 0.4 and 0.8 anti-IIa U/ml, 200 μg/ml CTI, 20 pM tissue factor): prolonged the time to clot at each concentration tested | prolongation of the time to clot ([2]; hirudin 0.4 anti-IIa U/ml, 200 μg/ml CTI, tissue factor initiated): 21 s | prolongation of the time to clot ([2]; hirudin 0.8 U/ml, 200 μg/ml CTI, 20 pM tissue factor): 37 s

rTAP: recombinant tick anticoagulant peptide, a specific inhibitor of factor Xa (YNRLCIKPRDWIDECDSNEGGERAYFRNGKGGCDSFWICPEDHTGADYYSSYRDCFNACI; UniProt P17726 1-60, looked up)
effect on the aPTT ([1]; rTAP 0.4 anti-Xa U/ml): no effect; also recorded: not affected | effect on the aPTT ([1]; rTAP 0.4 anti-Xa U/ml, listed as tick anticoagulant peptide): without prolonging the aPTT | prolongation of the aPTT ([1]; tick anticoagulant peptide 0.4 anti-Xa U/ml): 3 s | effect on the time to clot ([2]; rTAP 0.4 anti-Xa U/ml, 200 μg/ml CTI, 20 pM tissue factor): prolonged the time to clot | prolongation of the time to clot ([2]; rTAP 0.4 anti-Xa U/ml, 200 μg/ml CTI, tissue factor initiated): 229 s

B1: lipidated tissue factor: lipidated tissue factor (American Diagnostica), initiator of clotting (protein, UniProt P13726 33-295, looked up)
Tissue factor: SGTTNTVAAYNLTWKSTNFKTILEWEPKPVNQVYTVQISTKSGDWKSKCFYTTDTECDLTDEIVKDVKQTYLARVFSYPAGNVESTGSAGEPLYENSPEFTPYLETNLGQPTIQSFEQVGTKVNVTVEDERTLVRRNNTFLSLRDVFGKDLIYTLYYWKSSSSGKKTAKTNTNEFLIDVDKGENYCFSVQAVIPSRTVNRKSTDSPVECMGQEKGEFREIFYIIGAVVFVVIILVIILAISLHKCRKAGVGQSWKENSPLNVS
modifications: lipidated
notes: lipidated tissue factor (American Diagnostica), initiator of clotting
effect on the time to clot ([2]; lipidated tissue factor 1.0 to 60 pM, 12 subjects): concentration dependent decrease in the time to clot

B2: abciximab (antibody, chains of the INN, looked up, V domains shown)
VH: EVQLQQSGTVLARPGASVKMSCEASGYTFTNYWMHWVKQRPGQGLEWIGAIYPGNSDTSYIQKFKGKAKLTAVTSTTSVYMELSSLTNEDSAVYYCTLYDGYYVFAYWGQGTLVTVSA
VL: EIVLTQSPVTLSVTPGDSVSLSCRASRDISNNLHWFQQTSHESPRLLIKYASQSMSGIPSRFSGSGSGTDFTLSINSVETEDFGMYFCQQTNSWPYTFGGGTKLEIK
modifications: Fab
notes: commercially available monoclonal antibody against platelet glycoprotein gpIIb-IIIa
effect on the aPTT of adding abciximab to heparin [1, 3]: not affected; also recorded: did not prolong further the aPTT; also recorded: did not affect the aPTT | effect on the aPTT of adding abciximab to enoxaparin [1, 4]: not affected; also recorded: did not prolong further the aPTT | effect of the combination on the time to clot ([2]; 0.1 anti-IIa U/ml heparin with 3 μg/ml abciximab, 200 μg/ml CTI, 20 pM tissue factor): prolonged the time to clot compared with heparin alone | effect of the combination on the time to clot ([2]; 0.4 anti-Xa U/ml enoxaparin with 3 μg/ml abciximab, 200 μg/ml CTI, 20 pM tissue factor): prolonged the time to clot compared with enoxaparin alone | further prolongation of the time to clot compared with heparin alone [2, 3]: 62 s and 61 s | further prolongation of the time to clot compared with enoxaparin alone [2, 4]: 52 s | prolongation of the time to clot by the combination ([2]; abciximab 3 μg/ml and heparin in combination): 102 s
